Data on three molecules can be found in patent publication US20060084599A1, “Compositions, methods and kits relating to notch signaling” (Maine Medical Center, priority 2003, published 2006).

In test [1] the test system is NIH 3T3 stable transfectants. Briefly: FGF1 release in stable NIH 3T3 cell transfectants (Example 1). As to conditions: sJ1 stable transfectants transduced with FGF1 adenovirus, 37° C. It counts as cell-based, murine. The procedure: Adenovirus vector expressing lacZ, FGF1, caN1, dnN1, caN2 or dnN2 was prepared as described (Hardy et al., 1997, J. Virol. 71: 1842-1849) at a titer of approximately 10^12 viral particles/ml. For adenoviral transduction, NIH 3T3 stable transfectants were incubated in serum-free medium with approximately […] viral particles/cell in the presence of poly-D-lysine hydrobromide (Sigma) (5×10^3 molecules/viral particle) for two hours at 37° C., after which the adenovirus-containing media was removed and replaced with serum-containing medium (10% BCS) for an additional 24 hours. The transduced cells were harvested by trypsin digestion and seeded for the heat shock experiments as previously described (Jackson et al., 1992, Proc. Natl. Acad. Sci. USA 89: 10691-10695). After heat shock, the conditioned media from cells exposed to either 37° C. (normal conditions) or 42° C. (heat shock conditions) were treated with 0.1% DTT for 2 hours at 37° C., adsorbed to heparin-Sepharose and eluted from the column with 1.5 M NaCl. The eluants were resolved by 15% (w/v) SDS-PAGE and evaluated by FGF1 immunoblot analysis as described (Jackson et al., 1992, Proc. Natl. Acad. Sci. USA 89: 10691-10695).

In test [2] the test system is FGF1.A promoter. Briefly: FGF1.A promoter luciferase reporter. It counts as cell-based, murine. As to conditions: sJ1 NIH 3T3 cell transfectants versus insert-less vector. The procedure: In order to confirm the sJ1-dependent function of the FGF1.A promoter, the corresponding 1.8 Kbp region (Madiai et al., 1999, J. Biol. Chem. 274:11937-11944) was cloned into a promoter-less firefly luciferase reporter vector and FGF1.A-driven firefly luciferase activity was evaluated in both insert-less vector and sJ1 NIH 3T3 cell transfectants.
(A reporter such as luciferase makes a cellular process visible.)

Test [3] has as its system cortactin. The experiment in a line: Phosphotyrosine cortactin immunoblot. Type of test: cell-based, mouse. Conditions: stable NIH 3T3 cell transfectants expressing the ligand. How it is done:
Immunoblot Analysis. Cell lysates from insert-less vector sDl1 and sJ1 NIH 3T3 cell transfectants were prepared in 20 mM Tris HCl, pH 7.5, containing 300 mM sucrose, 60 mM—KCl, 15 mM NaCl, 0.5 mM EDTA, 0.5% (v/v) Triton X-100, 1 mM phenylmethylsulfonyl fluoride, 10 μg/ml leupeptin, 2 μg/ml aprotinin, 0.1% (w/v) deoxycholic acid and 1 mM sodium orthovanadate. Samples of equal protein content were subjected to SDS-PAGE and immunoblot analysis was performed as previously described (Small et al., 2001, J. Biol. Chem. 276:32022-32030) using either a rabbit anti-Src [pY418] phosphospecific antibody (Biosource International), a rabbit anti-total Src antibody (Santa Cruz Biotechnology), a rabbit polyclonal anti-cortactin antibody (a gift from Dr. Xi Zhan, American Red Cross), or an anti-phosphotyrosine antibody (Upstate). Immunoprecipitation of cortactin was performed as previously described (Zhan et al., 1993, J. Biol. Chem. 268:24427-24431).
A general note: In western blotting, separated proteins are transferred to a membrane and probed.

Test [4] has as its system NIH 3T3 cell transfectants. Briefly: Anchorage-dependent cell growth assay. As to conditions: stable NIH 3T3 cell transfectants, 10% BCS. It counts as cell-based, mouse. The procedure: Anchorage-Dependent and -Independent Cell Growth Assays. Approximately 3×10^4 cells were plated on fibronectin (10 μg/cm^2)-coated in 12-well cell culture dishes (Falcon) in DMEM containing 10% BCS (v/v) (Hyclone). Three wells of the individual NIH 3T3 cell transfectants were harvested every third day and cell number was quantitated using a hemocytometer. Anchorage-independent cell growth was evaluated by plating in duplicate approximately 1.7×10^3 cells in DMEM containing 0.5% (w/v) agar (Sigma) 10% (v/v) BCS into 5 cm plastic dishes (Falcon) as previously described (Small et al., 2003, J. Biol. Chem. 278:16405-16413).

In test [5] the test system is PAR1 null cells. The experiment in a line: FGF1 release from PAR1 null cells. It counts as cell-based, mouse. As to conditions: 10 μg/ml α-thrombin, 5 and 60 minutes. The procedure: Murine NIH 3T3 (ATCC), Swiss 3T3 (ATCC), sJ1 NIH 3T3 cell transfectants were all disclosed elsewhere herein (e.g., Example 1), FGF1 NIH 3T3 transfectants (Jackson et al., 1992, Proc. Natl. Acad. Sci. U.S.A. 89:10691-10695) and PAR1 null mouse embryonic fibroblasts (a gift from Dr. S. Coughlin) were grown in Dulbecco's modified Eagle's medium (DMEM; Life Technologies) supplemented with 10% bovine calf serum (BCS; Hyclone) and 1× antibiotic/antimycotic (Life Technologies). All stable NIH 3T3 cell transfectant cultures were further supplemented with 0.4 g/L Geneticin (GIBCO). […]
FGF1R136K NIH 3T3 cell transfectants or adenovirally-transduced NIH 3T3 cells were washed with DMEM containing 5 units/ml of heparin (Sigma) and stimulated with either 10 μg/ml α-thrombin (a gift from Dr. J. Fenton) or 5 μM TRAP (Sigma) at 37° C. for different periods of time. […] Cell viability was assessed by measuring lactate dehydrogenase activity in the conditioned medium after filtration as disclosed previously elsewhere herein (published as Mandinova et al., 2003, J. Cell Sci. 116:2687-2696), and total cell lysates were obtained and processed for immunoblot analysis as described (Landriscina et al., 2001, J. Biol. Chem. 276:22544-22552). […]

Test [6] concerns NSC populations. Briefly: NSC clonal expansion on full-length Jagged1 NIH 3T3 feeder layer. Conditions: 5 μg/ml thrombin. Type of test: cell-based. From the text:
To further evaluate the activity of thrombin as a modifier of Jagged1, the clonal expansion studies were repeated using NSC populations cultured in the presence of a viable full-length Jagged1 NIH 3T3 cell transfectant feeder layer.

Turning to “sJ1: Soluble Jagged1, amino acid residues about 1 to 1067 (SEQ ID NO:3) of full-length human Jagged1”, the “FGF1 release under normal growth conditions” value in test [1] was “significant release of FGF1 at 37 °C”. Further, the FGF1.A-driven promoter activity entry in test [2] was “significant increase in the FGF1.A-driven promoter activity”. The “level of tyrosine-phosphorylated cortactin” value in test [3] was “increased level”. The “growth kinetics at high cell density” value in test [4] is “impaired contact inhibition of growth”.
thrombin: the “export of FGF1R136K from PAR1 null cells” value in test [5] is recorded as “unable to induce the export of the FGF1R136K mutant”. Further, the “size of NSC colonies on full-length Jagged1 feeder layer” value in test [6] is “exaggeration of the size of the NSC colonies”.

B1: sDl1: soluble non-transmembrane form (extracellular domain) of the Notch ligand Delta1 (protein)
chain: QVWSSGVFELKLQEFVNKKGLLGNRNCCRGGAGPPPCACRTFFRVCLKHYQASVSPEPPCTYGSAVTPVLGVDSFSLPDGGGADSAFSNPIRFPFGFTWPGTFSLIIEALHTDSPDDLATENPERLISRLATQRHLTVGEEWSQDLHSSGRTDLKYSYRFVCDEHYYGEGCSVFCRPRDDAFGHFTCGERGEKVCNPGWKGPYCTEPICLPGCDEQHGFCDKPGECKCRVGWQGRYCDECIRYPGCLHGTCQQPWQCNCQEGWGGLFCNQDLNYCTHHKPCKNGATCTNTGQGSYTCSCRPGYTGATCELGIDECDPSPCKNGGSCTDLENSYSCTCPPGFYGKICELSAMTCADGPCFNGGRCSDSPDGGYSCRCPVGYSGFNCEKKIDYCSSSPCSNGAKCVDLGDAYLCRCQAGFSGRHCDDNVDDCASSPCANGGTCRDGVNDFSCTCPPGYTGRNCSAPVSRCEHAPCHNGATCHERGHRYVCECARGYGGPNCQFLLPELPPGPAVVDLTEKLEGQGGPFPW
modifications: left off: small tags and cut ends
notes: soluble non-transmembrane form (extracellular domain) of the Notch ligand Delta1
As to B1, the “level of tyrosine-phosphorylated cortactin” value in test [3] is recorded as “decrease”. In addition, the “growth kinetics at high cell density” value in test [4] is given as “impaired contact inhibition of growth”.
